What all share (experiment): Pre-emergent herbicidal activity (Table A)
Format in all cases: in vivo

The subject of assay [1] is Cocklebur. As to conditions: Xanthium strumarium, pre-emergence, Cobu, 11.2 kg/ha, 10-14 days, read-out: herbicidal rating (% inhibition). On the procedure:
(§1) The herbicidal ratings used in Tables A and B were assigned according to a scale based on the percent inhibition of each plant species. The herbicide rating symbols in Tables A and B are defined as follows: […]
(§2) One set of pre-emergent tests was conducted as follows:
(§3) Topsoil was placed in a pan and compacted to a depth of 0.95 to 1.27 cm. from the top of the pan. A predetermined number of seeds of each of several monocotyledonous and dicotyledonous annual plant species and/or vegetative propagules of various perennial plant species were placed on top of the soil. The soil required to level fill a pan after seeding or adding vegetative propagules was weighed into another pan. A known amount of the test compound dissolved or suspended in an organic solvent or water and applied in acetone or water as a carrier was thoroughly mixed with this cover soil, and the herbicide/soil mixture was used as a cover layer for the previously prepared pan.
(§4) The plant species usually regarded as weeds which were utilized in one set of pre-emergent activity tests, the data for which are shown in Table A, are identified by letter headings printed diagonally above the columns according to the following legend: […]

The test system of assay [2] is Barnyardgrass. The settings on record: Echinochloa crus-galli, pre-emergence, Bygr, 11.2 kg/ha, 10-14 days, read-out: herbicidal rating (% inhibition). The method, then:
as §1, §2, §3, §4

In assay [3] the test system is Pennsylvania Smartweed. The settings on record: pre-emergence, Pesw, 11.2 kg/ha, 10-14 days, read-out: herbicidal rating (% inhibition). On the procedure: as §1, §2, §3, §4
Assay [4] deals with Rhizome Johnsongrass. As to conditions: Sorghum halepense, pre-emergence, Rhjg, 11.2 kg/ha, 10-14 days, read-out: herbicidal rating (% inhibition). The method, then:
as §1, §2, §3, §4

The test system of assay [5] is Velvetleaf. As to conditions: Abutilon theophrasti, pre-emergence, Vele, 11.2 kg/ha, 10-14 days, read-out: herbicidal rating (% inhibition). The method, then:
as §1, §2, §3, §4

Assay [6] deals with Canada thistle. The settings on record: Cirsium arvense, pre-emergence, Cath, 11.2 kg/ha, 10-14 days, read-out: herbicidal rating (% inhibition). On the procedure: as §1, §2, §3, §4
Assay [7] deals with Downy Brome. As to conditions: Bromus tectorum, pre-emergence, Dobr, 11.2 kg/ha, 10-14 days, read-out: herbicidal rating (% inhibition). On the procedure:
as §1, §2, §3, §4

Assay [8] deals with Morningglory. As to conditions: Ipomoea, pre-emergence, Mogl, 11.2 kg/ha, 10-14 days, read-out: herbicidal rating (% inhibition). The method, then:
as §1, §2, §3, §4

The subject of assay [9] is Common Lambsquarters. As to conditions: Chenopodium album, pre-emergence, Colq, 11.2 kg/ha, 10-14 days, read-out: herbicidal rating (% inhibition). The method, then: as §1, §2, §3, §4
Assay [10] relates to Quackgrass. The settings on record: pre-emergence, Rhqg, 11.2 kg/ha, 10-14 days, read-out: herbicidal rating (% inhibition). On the procedure: as §1, §2, §3, §4
Assay [11] deals with Yellow Nutsedge. As to conditions: Cyperus, pre-emergence, Yens, 11.2 kg/ha, 10-14 days, read-out: herbicidal rating (% inhibition). On the procedure: as §1, §2, §3, §4

For the compound `CCOc1nc(C(F)(F)F)c(C(=O)n2cccn2)c(CC(C)C)c1C(=O)OC` [Compound 49, 3-pyridinecarboxylic acid, 2-ethoxy-4-(2-methylpropyl)-5-(1H-pyrazo1-1-ylcarbonyl)-6-(trifluoromethyl)-, methyl ester], the inhibition at 11200 g/ha in assay [1] was in the range of 25 to 49%; in assay [2], 75 to 100%; in assay [3], 75 to 100%; in assay [4] it was 50 to 74%; in assay [5] it was 75 to 100%; in [6], 75 to 100%. The inhibition at 11200 g/ha in [7], in [8], in assay [9], in [10] and in assay [11] was 75 to 100% each time.

`COC(=O)c1c(OC)nc(C(F)(F)F)c(C(=O)SC)c1CC(C)C` [Compound 34, 3-pyridinecarboxylic acid, 2-methoxy-4-(2-methylpropyl)-5-[(methylthio)carbonyl]-6-(trifluoromethyl)-, methyl ester]: the inhibition at 11200 g/ha in assay [1] fell in the range of 75 to 100%; in assay [2], 75 to 100%; in assay [3], 75 to 100%; in [4], 75 to 100%; in [5], 50 to 74%; in assay [6], 75 to 100%. In addition, the inhibition at 11200 g/ha in assay [7], in [8], in [9], in [10] and in [11] was 75 to 100% in each case.

For `COC(=O)c1c(OC)nc(C(F)(F)F)c(C(=O)NCCO)c1CC(C)C` [Compound 38, 3-pyridinecarboxylic acid, 5-[[(2-hydroxyethyl)amino]carbonyl]-2-methoxy-4-(2-methylpropyl)-6-(trifluoromethyl)-, methyl ester], the inhibition at 11200 g/ha in assay [1], in assay [2], in assay [3], in [4], in [5] and in assay [6] was 0 to 24% each time. In addition, the inhibition at 11200 g/ha in assay [7], in [8], in [9], in assay [10] and in assay [11] was 0 to 24% each time.

In the case of `COc1nc(C(F)(F)F)c(C(=O)SC)c(C2CC2)c1C(=O)SC` [Compound 12, 3,5-pyridinedicarbothioic acid, 4-cyclopropy1-2-methoxy-6-(trifluoromethyl)-, S,S-dimethyl ester], the inhibition at 11200 g/ha in assay [1] fell in the range of 25 to 49%; in assay [2], 75 to 100%; in assay [3] it was 75 to 100%; in assay [4] it was 0 to 24%; in assay [5], 75 to 100%; in [6], 25 to 49%. The inhibition at 11200 g/ha in assay [7] lay within 75 to 100%; in [8] it was 75 to 100%; in [9], 75 to 100%; in assay [10], 75 to 100%; in [11] it was 25 to 49%.

Regarding `COC(=O)c1c(OC)nc(C(F)(F)F)c(C(=O)OC)c1C(C)C` [Compound 63, 3,5-pyridinedicarboxylic acid, 2-methoxy-4-(1-methylethyl)-6-(trifluoromethyl)-, dimethyl ester], the inhibition at 11200 g/ha lay in the range of 0 to 24% in assay [1]; 75 to 100% in assay [2]; 75 to 100% in assay [3]; 75 to 100% in [4]; 75 to 100% in assay [5]; 50 to 74% in assay [6]. The inhibition at 11200 g/ha in assay [7], in assay [8], in assay [9], in [10] and in assay [11] was 75 to 100% in each case.

For the compound `COC(=O)c1c(OC)nc(C(F)(F)F)c(C(=O)n2ccc(C)n2)c1CC(C)C` [Compound 51, 3-pyridinecarboxylic acid, 2-methoxy-4-(2-methylpropyl)-5-[(3-methy1-1H-pyrazo1-1-yl)carbonyl]-6-(trifluoromethyl)-, methyl ester], the inhibition at 11200 g/ha in assay [1] fell in the range of 25 to 49%; in [2], 75 to 100%; in [3], 75 to 100%; in assay [4], 75 to 100%; in assay [5] it was 75 to 100%; in [6], 75 to 100%. Also, the inhibition at 11200 g/ha in [7] lay within 75 to 100%; in assay [8], 75 to 100%; in [9] it was 75 to 100%; in assay [10], 75 to 100%; in assay [11], 25 to 49%.

Regarding `CCOC(=O)C1=C(C(F)(F)F)NC(=O)C(C(N)=O)C1CC(C)C` (centres unmarked) [Compound 35, 3-pyridinecarboxylic acid, 5-(aminocarbonyl)-1,4,5,6-tetrahydro-4-(2-methylpropyl)-6-oxo-2-(trifluoromethyl)-, ethyl ester], the inhibition at 11200 g/ha in [1], in assay [2], in [3], in [4], in assay [5] and in assay [6] was 0 to 24% each time. The inhibition at 11200 g/ha in [7], in assay [8], in assay [9], in assay [10] and in assay [11] was 0 to 24% each time.

For the compound `CCOc1nc(C(F)(F)F)c(C(=NC)SC)c(CC(C)C)c1C(=O)OC` [Compound 46, 3-pyridinecarboxylic acid, 2-ethoxy-5-[(methylimino)(methylthio)methyl]-4-(2-methylpropyl)-6-(trifluoromethyl)-, methyl ester], the inhibition at 11200 g/ha in assay [1] lay in the range of 0 to 24%; in assay [2], 75 to 100%; in [3] it was 75 to 100%; in assay [4], 0 to 24%; in assay [5] it was 50 to 74%; in assay [6], 75 to 100%. Further, the inhibition at 11200 g/ha in [7] is 75 to 100%; in [8], 75 to 100%; in assay [9], 75 to 100%; in [10], 75 to 100%; in assay [11], 0 to 24%.

For the compound `CCCc1c(C(=O)OC)c(OC)nc(C(F)(F)F)c1C(=O)OC` [Compound 91, 3,5-pyridinedicarboxylic acid, 2-methoxy-4-propy1-6-(trifluoromethyl)-, dimethyl ester], the inhibition at 11200 g/ha fell in the range of 25 to 49% in [1]; 75 to 100% in assay [2]; 75 to 100% in [3]; 75 to 100% in assay [4]; 75 to 100% in assay [5]; 75 to 100% in assay [6]. The inhibition at 11200 g/ha in assay [7], in assay [8], in assay [9], in [10] and in assay [11] was 75 to 100% throughout.

Turning to `COC(=O)c1c(C(F)(F)F)nc(OC)c(C#N)c1CC(C)C` [Compound 20, 3-pyridinecarboxylic acid, 5-cyano-6-methoxy-4-(2-methylpropyl)-2-(trifluoromethyl)-, methyl ester], the inhibition at 11200 g/ha in [1] was in the range of 0 to 24%; in [2] it was 75 to 100%; in [3], 25 to 49%; in assay [4], 75 to 100%; in assay [5] it was 0 to 24%; in assay [6] it was 0 to 24%. Also, the inhibition at 11200 g/ha lay within 75 to 100% in [7]; 50 to 74% in [8]; 75 to 100% in assay [9]; 75 to 100% in [10]; 0 to 24% in [11].

Source of the values: patent publication US5391540A, “Substituted pyridine compounds” (Rohm and Haas Company, priority 1993, dated 1995).
